Laboratory results as given in publication PMC4811417, “Sulforaphane Suppresses Hepatitis C Virus Replication by Up-Regulating Heme Oxygenase-1 Expression through PI3K/Nrf2 Pathway” (PLoS ONE, 2016).
Read-outs that look alike come from different tables or passages of the source.

How the values were obtained:
[1] = system: HCV subgenomic replicon (genotype 1b) in Ava5 cells; experiment: Anti-HCV activity in HCV replicon (Ava5) cells, qRT-PCR / Western blotting; type: cell-based, Hepatitis C virus; settings: for Selective Index (SI): CC50/EC50, Ava5 cells; for EC50: read-out: Anti-HCV activity (EC50)
Protocol: Huh-7, Huh7.5, Ava5 (harboring HCV subgenomic replicon; genotype 1b) and Huh7.5/J6/JFHEMCVIRESRlucNeo cells (harboring HCV subgenomic replicon RNA and renilla luciferase reporter gene; genotype 2a) obtained from Apath, LLC (St. Louis, MO) were routinely passaged in Dulbecco’s modified Eagle’s medium containing 10% heat-inactivated fetal bovine serum, 1% nonessential amino acids, and 1% antibiotic-antimycotic in a 37°C incubator with a humidified atmosphere containing 5% CO2. Sulforaphane (SFN), phenethyl isothiocyanate, benzyl isothiocyanate, benzyl isothiocyanate, butyl isothiocyanate, allyl isothiocyanate, and HO-1-specific inhibitor (tin protoporphyrin IX dichloride; SnPP) were obtained from Sigma Aldrich Co. (St. Louis, MO, USA). Biliverdin was obtained from MP Biomedicals, Inc (Santa Ana, CA, USA). […] Daclatasvir and telaprevir were obtained from Legend Stat International Co., Ltd (Omdurman, Sudan). Sofosbuvir was obtained from Shanghai Haoyuan Chemexpress Co., Ltd. (Shanghai, China). These compounds were stored at a concentration of 10 mM in 100% dimethyl sulfoxide (DMSO) at 4°C until use. All the reactions were performed using a final concentration of 0.1% DMSO.
(§1) Total cellular RNA extracted from cultured cells was purified using the Total RNA Miniprep Purification Kit (GMbiolab Co., Ltd, Taiwan). RNA samples were reverse transcribed into complementary DNA using the M-MLV Reverse Transcription System (Promega). Quantitative real-time polymerase chain reaction (qRT-PCR) was performed to assess the relative levels of gene expression using the ABI Step One Real-Time PCR-System (ABI Warrington, UK). Glyceraldehydes-3-phosphate dehydrogenase (gapdh) gene expression was used as the endogenous control for normalization in all qRT-PCR analyses. Relative expression was calculated using the comparative Ct method. Absolute quantitation of HCV RNA copies was calculated and determined relative to standard curves comprised of serial dilution of expression plasmids containing the coding sequence of HCV NS5B using RT-qPCR. The primer sequences primers for qRT-PCR were used as previously described (Table 1).
(§2) Western blotting was performed as previously described. Proteins from cell lysates were separated using SDS-PAGE and transferred onto PVDF membranes. The membranes were blocked with 5% nonfat milk in phosphate-buffered saline containing Tween 20 (PBST) and incubated overnight at 4°C with primary antibodies against GAPDH (1:10,000; GeneTex, CA, USA), NS5B (1:5,000; Abcam, Cambridge, MA, USA), Nrf2 (1:3,000; GeneTex), HO-1 (1:3,000; GeneTex), biliverdin reductase A (BVRA), Keap1 and Bach1 (1:1,000; Abcam), and total-phohphoinositide 3-kinase (PI3K) or phosphor-PI3K (1:1000; Cell Signaling Technology, Inc., Beverly, MA, USA). The immunoreactive blot signals were detected using the enhanced chemiluminescence Western blotting reagent (Perkin-Elmer, CT, USA).
To investigate the anti-HCV activity of SFN and its analogs (Fig 1A), Huh-7-derived Ava5 cells that harbor an HCV subgenomic RNA replicon were treated with increasing concentrations of SFN for 3 days. The anti-HCV activity and cytotoxicity of SFN and its analogs were analyzed by qRT-PCR and MTS assay, respectively. […] Moreover, the anti-HCV replication activity of SFN was analyzed by Western blotting and qRT-PCR.

[2] = Cell viability / cytotoxicity, MTS assay; type: cell-based; settings: human; Ava5 cells, MTS assay; read-out: Cyto-Toxicity (CC50)
Text: (§3) The CellTiter 96 Aqueous One Solution Cell Proliferation assay system (Promega, Madison, WI, USA), which is a colorimetric approach for the detection of the cytotoxic effect of a compound, was used to measure cell viability according to the manufacturer’s protocol. […] The absorbance values were detected at 490 nm using a 96-well plate reader (Bio-Rad, Hertfordshire, UK).

[3] = system: JFH-1 virus particle-infected Huh-7 cells; experiment: Combination of SFN with antiviral drugs in HCV-infected cells (CalcuSyn2, Chou and Talalay); type: cell-based, Hepatitis C virus; settings: JFH-1-infected Huh-7 cells; for CI values at ED75 / CI values at ED90: fixed ratio, 3 days
Protocol: (§4) The anti-HCV activities of the different combinations were determined by qRT-PCR. The drug combination data were analyzed using CalcuSyn2™ software (Biosoft, Cambridge, UK) based on the method by Chou and Talalay. The multiple drug dose effects and combination index (CI) values were evaluated and presented as antagonism (CI > 1), additivity (CI = 1) or synergism (CI < 1).

[4] = system: HCV subgenomic replicon in Ava5 cells; experiment: Combination of SFN with antiviral drugs in replicon cells (CalcuSyn2, Chou and Talalay); type: cell-based, Hepatitis C virus; settings: for CI values at ED75 / CI values at ED90: fixed ratio, 3 days
Protocol: as §4

Ava5 cells = experiment: Cell viability / cytotoxicity, MTS assay; type: cell-based; settings: at doses where viral replication was inhibited
Text: as §3

[5] = system: HCV JFH-1 (genotype 2a) in Huh-7 cells; settings: JFH-1-infected Huh-7 cells, 3 days
Protocol: HCV infectious particles (JFH-1; genotype 2a) were produced as previously described. HCV infection assay was used to determine the antiviral effect of SFN. Huh-7 cells were seeded in 24-well plates at a density of 5 × 10^4 cells per well and were infected with HCV for 6 h at a multiplicity of infection (MOI) of 0.1. The HCV-infected cells were treated with different concentrations (0–10μM) of SFN and incubated for 3 days, following which total RNA samples were extracted and subjected to qRT-PCR analysis for the quantification of HCV replication.

HO-1 = settings: Ava5 cells, 0–10 μM, 3 days
Protocol: as §1
Western blotting was performed as previously described. Proteins from cell lysates were separated using SDS-PAGE and transferred onto PVDF membranes. […] The immunoreactive blot signals were detected using the enhanced chemiluminescence Western blotting reagent (Perkin-Elmer, CT, USA).

[6] = system: IFN response (IFN-α, ISRE, OAS1, OAS2, OAS3, PKR)
Protocol: as §1

PI3K = settings: Ava5 cells, 7.5 μM SFN, 15 min after treatment
Protocol: as §2

[7] = system: HCV JFH-1 in Huh7.5 cells
Protocol: The effect of SFN on HCV entry was determined according to previously described methods [22]. Briefly, Huh7.5 cells were infected with JFH-1 and treated with SFN for 1 hour at 37°C (endocytosis/fusion period). Finally, cells were washed and incubated in complete culture medium at 37°C for 45 hours. Subsequently, the cells were collected to quantify intracellular HCV RNA copy numbers. The effect of SFN on assembly and secretion were determined according to previously described methods [23]. The Huh7.5 cells were infected with JFH-1 and treated with indicated concentration of SFN. The viral supernatants and cell pellets were collected at 3 days postinfection for virus titration by qRT-PCR.
(A) Huh7.5 cells were infected with JFH-1 and treated with SFN for 1 hr at 37°C and then the infectecells were washed and incubated in complete culture medium. The intracellular HCV RNA copy numbers were quantified by qRT-PCR. The treatment of heparin served as positive control for the inhibition of HCV entry. The relative HCV entry were presented as percentage changes compared to the SFN-untreated cells, which were considered as 100%. (B) Huh7.5 cells were infected with JFH-1 and then treated with SFN for 72 hrs. The supernatant and cell lysate were collected and the HCV RNA copy numbers were quantified by qRT-PCR.

HCV NS3/4A protease = HCV NS3/4A protease (Hepatitis C virus genotype 1b, UniProt Q9WMX2); settings: Huh-7 cells, 0–10 μM, 3 days, compared to untreated controls; restored with SnPP
Sequence of HCV NS3/4A protease (Q9WMX2 1027-1657): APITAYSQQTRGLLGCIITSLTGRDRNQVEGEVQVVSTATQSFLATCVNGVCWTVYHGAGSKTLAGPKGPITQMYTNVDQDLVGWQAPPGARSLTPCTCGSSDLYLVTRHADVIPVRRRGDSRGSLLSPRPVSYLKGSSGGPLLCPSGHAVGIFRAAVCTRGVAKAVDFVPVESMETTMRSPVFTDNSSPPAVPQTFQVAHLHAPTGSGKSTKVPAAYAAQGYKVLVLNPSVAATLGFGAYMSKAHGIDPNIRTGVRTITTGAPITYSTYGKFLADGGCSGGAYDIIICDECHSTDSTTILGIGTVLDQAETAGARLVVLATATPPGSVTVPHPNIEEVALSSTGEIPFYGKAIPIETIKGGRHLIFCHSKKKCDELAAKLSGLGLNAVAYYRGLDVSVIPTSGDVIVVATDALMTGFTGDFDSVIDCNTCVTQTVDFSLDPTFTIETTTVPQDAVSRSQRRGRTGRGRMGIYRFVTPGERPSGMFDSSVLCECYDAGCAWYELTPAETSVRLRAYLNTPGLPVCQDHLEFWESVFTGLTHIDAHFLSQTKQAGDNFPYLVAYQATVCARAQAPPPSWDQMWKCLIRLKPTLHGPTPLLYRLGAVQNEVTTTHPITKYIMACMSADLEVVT
Sequence of HCV NS3/4A protease (Q9WMX2 1658-1711): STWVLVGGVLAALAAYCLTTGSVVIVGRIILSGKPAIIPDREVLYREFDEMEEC
Protocol: The supernatants were harvested for measurement of SEAP activity by Phospha-Light assay kit (Tropix, Bedford, UK).
The culture supernatants were harvested and the SEAP activity was analyzed by Phospha-Light assay kit. Telaprevir (1 μM) and biliverdin (100 μM) served as positive controls for anti-HCV protease activity. The relative SEAP activities were presented as fold changes compared to untreated cells, in which as the activity was considered to be 1.

bilirubin / BVR = settings: Ava5 cells, 3 days
Protocol: Intracellular bilirubin level was quantified as previously described [24]. Cells were seeded in 6-well plates at a density of 4 × 10^5 cells per well and treated with SFN at indicated concentrations for 3 days. Cell lysates were harvested and the amount of bilirubin was quantified using Calibrator for Automated Systems (c.f.a.s) (Roche Diagnostics Ltd., South San Francisco, CA, USA) and MeDiPro direct bilirubin test kit (Formosa Biomedical Technology Corp., Taipei, Taiwan). The absorbance values at 546 and 660 nm were measured using the Epoch microplate spectrophotometer (BioTek Instruments, Inc., Winooski, VT, USA).
The parental Huh-7 cells were used to determine basal bilirubin levels. […] Ava5 cells were treated with the indicated concentrations of SFN for 3 days. The expression of BVR was analyzed by qRT-PCR and Western blotting using specific primers and antibodies for BVR and GAPDH, respectively. GAPDH expression was used as protein loading control.

[8] = rats, oral dosing of 50 μmol of SFN, cited from earlier work
Nrf2/ARE = experiment: ARE transactivation and Nrf2 expression in Ava5 cells (p3xARE-Luc, Western blotting)
[9] = Hepatitis C virus, 72 h, Ava5 cells, 3 days, HCV RNA levels by qRT-PCR

C=CCN=C=S [Allyl isothiocyanate, allyl isothiocyanate]
Selective Index (SI) [1]: 1.5
EC50 [1, 9]: 20 ± 2 µM
CC50 at 3 days [2]: 33 ± 3 µM

S=C=NCc1ccccc1 [Benzyl isothiocyanate, benzyl isothiocyanate]
Selective Index (SI) [1]: 3
EC50 [1, 9]: 20 ± 2 µM
CC50 at 3 days [2]: 67 ± 2 µM

CCCCN=C=S [Butyl isothiocyanate, butyl isothiocyanate]
CC50 at 3 days [2]: 95 ± 6 µM

COC(=O)N[C@H](C(=O)N1CCC[C@H]1c1nc(-c2ccc(-c3ccc(-c4c[nH]c([C@@H]5CCCN5C(=O)[C@@H](NC(=O)OC)C(C)C)n4)cc3)cc2)c[nH]1)C(C)C [Daclatasvir]
Influence [3]: Synergistic
CI values at ED75 [3]: 0.5
CI values at ED90 [3]: 0.4
Influence [4]: Synergistic
CI values at ED75 [4]: 0.5
CI values at ED90 [4]: 0.4

S=C=NCCc1ccccc1 [Phenethyl isothiocyanate, phenethyl isothiocyanate]
EC50 ([1]; Hepatitis C virus, Ava5, 72 h): 2.5 ± 0.5 µM
CC50 at 3 days [2]: 10 ± 1.5 µM

CC(C)OC(=O)[C@H](C)N[P@](=O)(OC[C@H]1O[C@@H](n2ccc(=O)[nH]c2=O)[C@](C)(F)[C@@H]1O)Oc1ccccc1 [Sofobuvir, sofosbuvir]
Influence [3]: Synergistic
CI values at ED75 [3]: 0.5
CI values at ED90 [3]: 0.4
Influence [4]: Synergistic
CI values at ED75 [4]: 0.5
CI values at ED90 [4]: 0.4

C[S+]([O-])CCCCN=C=S (stereo not shown) [Sulforaphane]
inhibition of viral replication ([1]; 10 μM SFN, Ava5 cells, 3 days, compared to SFN-untreated cells): 90%
HCV protein synthesis and RNA replication ([1]; Ava5 cells, 0–10 μM, 3 days, concentration-dependent): significantly reduced
Selective Index (SI) [1]: ~10
EC50 ([1]; Hepatitis C virus, Ava5, 72 h): 5 ± 1.5 µM
IC50 ([1]; Hepatitis C virus, Ava5, HCV replicon cells and infectious system, read-out: IC50 value, suppression of HCV protein and RNA levels): 5.7 ± 0.2 µM
CC50 at 3 days [2]: 52 ± 3 µM
cytotoxicity (cell viability by MTS assay) (Ava5 cells): did not induce significant cytotoxicity
antiviral activity in the HCV JFH-1 infection system [5]: exhibited antiviral activity
HO-1 RNA and protein levels (HO-1): significantly increased
IFN-α2 and IFN-α17 expression ([6]; Ava5 cells, 3 days, qRT-PCR, attenuated with SnPP): significantly induced
IFN-α levels in culture supernatants ([6]; Ava5 cells, ELISA, effective antiviral concentrations, attenuated by SnPP): significantly increased
expression of IFN response genes (OAS1, OAS2, OAS3, PKR) ([6]; Ava5 cells, qRT-PCR, attenuated by SnPP): significantly induced
ISRE-mediated luciferase activity ([6]; pISRE-Luc-transfected Ava5 cells, 3 days, attenuated with SnPP): significant induction
phosphorylation of PI3K (PI3K): significantly induced
inhibition on viral entry ([7]; Huh7.5 cells infected with JFH-1, SFN 1 hour): no significant inhibition
inhibition on viral assembly ([7]; Huh7.5 cells infected with JFH-1, SFN 3 days): no significant inhibition
HCV protease activity (SEAP) (HCV NS3/4A protease): significantly decreased
bilirubin levels (bilirubin / BVR; 0–10 μM): significant increase
BVR RNA or protein levels (bilirubin / BVR): did not detect any significant changes
plasma concentration ([8]; reached within 4h): around 20 μM
elimination half-life [8]: 2.2 h
time at which plasma concentration of SFN occurred [8]: 1 h
protein levels of Keap1 and Bach1 (Nrf2/ARE; Ava5 cells): did not observe significant changes
expression of Nrf2 in cytoplasmic and nuclear fractions (Nrf2/ARE; Ava5 cells, concentration-dependent): significant increase
ARE-mediated luciferase activity (Nrf2/ARE; p3xARE-Luc-transfected Ava5 cells, 3 days, effective antiviral concentrations): significantly increased

CCC[C@H](NC(=O)[C@@H]1[C@H]2CCC[C@H]2CN1C(=O)[C@@H](NC(=O)[C@@H](NC(=O)c1cnccn1)C1CCCCC1)C(C)(C)C)C(=O)C(=O)NC1CC1 [Telapriver, telaprevir]
Influence [3]: Synergistic
CI values at ED75 [3]: 0.6
CI values at ED90 [3]: 0.5
Influence [4]: Synergistic
CI values at ED75 [4]: 0.7
CI values at ED90 [4]: 0.6
